The text below walks through data of patent publication US4569791A, “Anti-diabetic compounds” (Eli Lilly and Company, priority 1984, dated 1986).

One assay has as its system insulin receptor on IM-9 cells. The assay can be described thus: IM-9 Radioreceptor Assay (displacement of 125I-insulin). The settings on record: IM-9 cells, 125I-insulin 1-2×10^-11 M, 15° C., two hours. It is filed as binding, human. As for the experimental part:
A. IM-9 Radioreceptor Assay
IM-9 cells were grown in RPMI media containing 2 mM glutamine, 25 mM HEPES, and 10% fetal bovine serum. […] Incubations were carried out in 1.5 ml microfuge tubes at 15° C. for two hours. Concentrations of stock solutions containing insulin, proinsulin, or compound of this invention used in the binding studies were established by amino acid analysis and by their absorbance at 276 nm. The cells were resuspended during the assay every 30 minutes by inverting the tubes several times. At the end of the incubation, the tubes were centrifuged for one minute in a Beckman Microfuge, the supernant was aspirated, the tips of the tubes containing the cell pellet were excised, and the radioactivity was measured.
In the case of (32-33 split)HPI [(32-33 split) HPI], the ED50 is reported as 5.92 ± 0.7 × 10^-9 M.
On the same count and under the same terms, to Human Proinsulin [reference compound] belongs 2.97 ± 0.2 × 10^-8 M.
On the same count and under the same terms, with des(31,32)HPI [des (31,32) HPI] the figure was 5.60 ± 0.3 × 10^-9 M.

The assay is the same for the next values; noted with them: IM-9 radioreceptor assay; human proinsulin = 1.
Consider (32-33 split)HPI [(32-33 split) HPI], for which the “Relative Potency” value amounted to 5.
Still for that read-out and setting: with Human Proinsulin [reference compound] the figure was 1.
Still for that read-out and setting: with des(31,32)HPI [des (31,32) HPI] the figure was 5.

For another assay, the system named is insulin receptor on isolated fat cells. The assay is described as follows: Isolated Fat Cell Radioreceptor Assay (displacement of 125I-labeled insulin). The settings on record: isolated fat cell radioreceptor assay; human proinsulin = 1. The assay is classed as binding. As for the experimental part: B. Isolated Fat Cell Radioreceptor Assay
Isolated fat cells were prepared by a modification [Huber, C. T., Solomon, S. S., and Duckworth, W. C., J. Clin. Invest. […] All incubations were in Krebs-Ringer-Hepes (KRH) buffer, pH 7.4, with 4% bovine serum albumin (BSA) in a total volume of 2 ml. […] At selected times, triplicate 300 μl aliquots were removed and added to microfuge tubes containing 100 μl dinonyl phthalate [see Gliemann, J., Osterlind, K., Vinten, J., and Gammeltoft, S., Biochem. Biophys. Acta. […] After centrifugation for one minute in a microfuge, the tubes were cut through the oil layer, and the cell pellet was counted using a gamma counter to determine binding.
In general terms: Loss of bound radioactivity is the signal in a displacement assay; it reports binding, not function.
For the substance (32-33 split)HPI [(32-33 split) HPI], the “Relative Potency” value came out at 5.
Regarding Human Proinsulin [reference compound], the “Relative Potency” value is given as 1.
Still for that read-out and setting: with des(31,32)HPI [des (31,32) HPI] the figure was 9.

The same assay, now with this note: isolated fat cells, 125I-labeled insulin 1-2×10^-11 M, 15° C., two hours.
For (32-33 split)HPI [(32-33 split) HPI], the ED50 is 5.29 ± 1.8 × 10^-8 M.
With Human Proinsulin [reference compound], the ED50 was 2.55 ± 0.6 × 10^-7 M.
On the same count and under the same terms, with des(31,32)HPI [des (31,32) HPI] the figure was 2.85 ± 0.1 × 10^-8 M.

For another assay, the system named is isolated rat adipocytes. The assay is described as follows: Biological Activity in Isolated Rat Adipocytes (incorporation of 2-3H-glucose in total fat cell lipid). The settings on record: biological activity in rat adipocytes; human proinsulin = 1. The assay is classed as cell-based. How it is done: C. Biological Activity in Isolated Rat Adipocytes
Adipocytes were prepared from epididymal fat pads by a modification (Huber, supra) of the collagenase digestion procedure of Rodbell, supra. Krebs-Ringer-HEPES (KRH) buffer, pH 7.4, containing 4% bovine serum albumin and 0.55 mM glucose was used in all isolation and incubation steps.
Biological activity was assessed according to the method of Moody, A. J., Stan, M. A., Stan, M., and Glieman, J., Horm. Metab. Res. 6, 12-16 (1974) by monitoring the incorporation of 2-^3 H-glucose in total fat cell lipid. […] Radioactivity was determined in a Searle Isocap 300 liquid scintillation counter at an efficiency of approximately 30%. Blanks were prepared in which the scintillation fluid was added to the vials prior to the addition of cells. The average counts obtained from these vials were subtracted from those observed in all other samples.
Competitive binding curves and biological activity dose-response curves were analyzed using the PREFIT and ALLFIT programs [DeLean, A., Munson, P. J., and Rodbard, D., Am. J. Physiol. 235, E97-E102 (1978)] based on a four-parameter logistic model. These analyses indicated the concentration of insulin or proinsulin necessary to produce a half-maximal response, as well as the maximal and minimal values. All values are presented as the mean ±SEM.
As for (32-33 split)HPI [(32-33 split) HPI], the “Relative Potency” value came to 5.
Take Human Proinsulin [reference compound]: the “Relative Potency” value is listed as 1.
Still for that read-out and setting: with des(31,32)HPI [des (31,32) HPI] the figure was 5.

The assay is the same for the next values; noted with them: rat adipocytes, 2-3H-glucose incorporation into lipid, 37° for 1 hr; mean ±SEM.
As for (32-33 split)HPI [(32-33 split) HPI], the ED50 was 2.56 ± 0.2 × 10^-9 M.
In the case of Human Insulin [reference compound], the ED50 was 5.32 ± 0.7 × 10^-11 M.
The same measure, in the same setting: with Human Proinsulin [reference compound] the figure was 1.24 ± 0.2 × 10^-8 M; with des(31,32)HPI [des (31,32) HPI], 2.68 ± 0.5 × 10^-9 M.
